In patent US20250235533A1, “INJECTABLE PROLONGED-RELEASE HYDROGEL FORMULATIONS OF TOLL-LIKE RECEPTOR AGONISTS FOR INTRATUMORAL INJECTION TO INCREASE IMMUNOTHERAPY RESPONSE” (priority 2024, published 2025):

Tests used:
[1] = Solubility / encapsulation of immunoadjuvant in PLGA-PEG-PLGA micelles; type: physicochemical
Procedure: Typically, 1 g of PLGA-PEG-PLGA was dissolved in 4 ml 0.9% saline solution (Baxter, Deerfield, IL) to obtain a 25% weight/volume (w/v) concentration at 4° C. over 2 days and vortexed/stirred daily. Importantly, the normal saline cannot contain the preservative phenol, commonly found in preservative containing commercial saline solutions. After a homogeneous hydrogel solution was observed by stirring with a spatula, imiquimod was added at 24 mg to the batch, the dispersion was vortexed and allowed to dissolve at room temperature over 2 days. Some of the gels received Iopamidol as contrast agent at 100 mg mL^−1, which was left to disperse or dissolve over 1 day. The resulting Imigel or Imigel+Iopamidol was stored at room temperature, shielded from evaporation, and used within 1 week from full dissolution to prevent hydrolysis. (FIGS. 3A-3E).

In vitro release studies = type: physicochemical
Procedure: Drug release kinetics of imiquimod from various […] formulations were studied by placing aliquots of drug-loaded hydrogel into 50 mL conical tubes at 100 rpm at 37° C., releasing drug into DPBS. 50 μL of […] were added to the bottom of 50 mL conical Falcon tubes or in a dialysis tubing (D-tube Dialyzer Maxi, MWCO 3.5 kDa) at room temperature and brought to gel state by incubating at 37° C. for 30 min while DPBS as receiving fluid was preheated at the same temperature. After […] solidified, 50 mL DPBS (pH 7.4), Lactated […]), or Acetate Buffer (pH 5, 0.03 m Acetic acid, and 0.07 m Sodium Acetate in DI water) were added slowly to the conical tubes. These containers were then incubated at 37° C. under shaking at 100 rpm. 400 μL samples were taken from the receiving fluid with a 1 mL syringe through 0.2 μm filters (PALL super membrane low protein binding non-pyrogenic) to avoid accidental removal of gel. Concentration of imiquimod in the samples was assessed eluting the samples on an Agilent 1100 high-performance liquid chromatography (HPLC) with UV detector at 242 nm over an Eclipse XD8-C18 column (150×4.6 mm, 3.5 μm pore size) with an acetonitrile/water gradient from 5/95 to 95/5 over 6 min at 1 mL mi-1 n. […] Concentrations were calculated from UV signals using a calibration curve of known concentration imiquimod standards in DMSO/Acetonitrile.

CT-26 tumors = assay: Dual tumor model survival study, CT-26; type: in vivo, balb/c mice; conditions: CT-26 model
Procedure: Per experimental arm 10-15 Balb c^−1 mice were injected with approximately 10^6 cells of CT-26 or EMT-6 cells, day 0 (FIG. 6) in bilateral flanks. Immunotherapy (anti-PD-1 (3.9 mg mL^−1), anti-CTLA-4 (2.2 mg mL^−1) co-immunotherapy was given intraperitoneally (Sigma-Aldrich) every 3 days from day 3-12. Mice with primary and contralateral tumors of at least 6 mm were chosen to be randomized to various treatment arms evaluating CPI with and without cryoablation, imiquimod drug-only injection, PLGA-PEG-PLGA only injection, or imigel (3:1) injection. The imigel, gel alone, or serial imiquimod suspensions were injected as 50 μL injections using a 26-gauge needle. For cryoablation, parameters included a 30 s freeze, followed by 2 min thaw, followed by a 30 s freeze with goal of approximately 50% tumoral freezing. When using cryoablation, the drug formulations were injected 5 min post final freeze, with a mild pause during injection to ensure no push back via the tract into the remaining viable tumor. Imiquimod alone was prepared as a suspension by 30 min of sonication at 1 mg mL^−1 in normal saline. Injections for imiquimod alone were done as a total 50 μL 1 mg mL^−1 injections once per day for six total doses. Specifically, Imigel delivered a total of 300 μg in one injection in two 25 μL injection depots within the tumor at the same injection session for only one session. […]

[2] = test system: CD8+ T cells in CT-26 tumors; assay: Intratumoral flow cytometry, CT-26 model; type: in vivo, mice; conditions: compared to CPI only
Procedure: Additional groups of 4 mice were injected with CT-26 and treated as above. 6 days post local intervention, mice were euthanized, and ipsilateral and contralateral tumors excised. In all cases of this example, tumor samples were minced and then incubated in a collagenase solution (1 mg mL^−1 in RPMI—1640) for approximately 45 min at 37° C. Tumors were processed into a single cell suspension using a 70 μm cell strainer.
For flow cytometry, using the cells harvested as above, cell viability was assessed by trypan blue staining, and 1×10^6 viable cells were stained for flow cytometry analysis. Cells were washed with PBS and stained with a 1:1000 solution of ZOMBIE Aqua (from […], Biolegend) and incubated on ice for 15 min. […] Cells were resuspended in cell staining buffer, and the samples were analyzed on an Aurora (Cytek Biotechnology). […] Gating for individual markers was determined by fluorescent minus one (FMO) control panels and unstained controls. […]

[3] = cited from earlier work

SMILES: CCCN(CCC)C(=O)C1=Cc2ccc(-c3ccc(C(=O)N4CCCC4)cc3)cc2N=C(N)C1 [motolimod]
- encapsulation ([1]; motolimod in PLGA-PEG-PLGA injectable composition): around 6 mg/mL
- release profile of motolimod (In vitro release studies; into PBS, PLGA-PEG-PLGA 1600-1500-1600 and 1500-1500-1500): relatively extended

SMILES: O=S(=O)([O-])[O-].[Ba+2] [barium sulfate]
- effect on release profile of imiquimod from injectable composition (In vitro release studies; phosphate buffer solution at 37 degrees C): does not significantly change the release profile of imiquimod

SMILES: CC(C)Cn1cnc2c(N)nc3ccccc3c21 [imiquimod]
- solubility at 2 days ([1]; PLGA1.5k-PEG1.5k-PLGA1.5k micelles (hydrogel solution), aqueous with cosolvent or surfactant or cyclodextrin, thermodynamic from solid, in PLGA1.5k-PEG1.5k-PLGA1.5k micelles, read-out: concentration uniformly solubilized): ~6000 µg/mL
- increase of aqueous solubility ([1]; encapsulated in micellar structure of PLGA-PEG-PLGA): approximately 2000 fold
- 90-day survival (CT-26 tumors; serial imiquimod (6 daily injections) with CPI and cryoablation): 46.7%
- 90-day survival (CT-26 tumors; serial imiquimod (6 daily injections) with CPI, no cryoablation): 57%
- percentage of activated CD8+ T cells (dual CD44+PD1+ among CD8+ T-cells) [2]: significant increase
- solubility in saline [3]: around 0.002 mg mL^−1
